Residues, ends and D or L forms follow the SMILES beside them.
What was measured:
lymph node cells (LNC) [1] = test: Cell survival in culture with peptide; format: cell-based, rat; settings: cells incubated with peptide
lymph node cells (LNC) [2] = test: T-cell proliferation of mice LNC with MOG 35-55 peptide antigen; format: cell-based; settings: MOG35-55 peptide
Balb/c mice = test: DTH response to oxazolone, dermal treatment; format: in vivo; settings: 100 μg in 40 μl DMSO on the ear one hour after challenge, measured 24 h after challenge
Method: In other experiments, DTH response to oxazolone in the presence of FP and IFFA was measured. Female Balb/c mice (5 mice per group) were sensitized to the shaved abdominal skin with 100 microliter of 2% oxazolone dissolved in acetone/olive oil (4:1 vol/vol) applied topically, and 5 days later challenged with 20 microliter of 0.5% oxazolone in acetone/olive oil, 10 microliter administered to each side of the ear. One hour after stimulation, FP, IFFA (100 μg in 40 μl DMSO) or DMSO were administered to each side of the ear. A constant area of the ear was measured immediately before challenge and 24 h after challenge.

Lewis rats = test: Adjuvant Arthritis (AA); format: in vivo, rat; settings: 100 μg peptide in IFA with Mt at AA induction
Method: Induction and Assessment of Adjuvant Arthritis (AA). To test the effect of FP on T-cell activation in vivo, AA was used as a model system. AA was induced by injecting 50 μl of Mt suspended in IFA (0.5 mg/ml) at the base of the tail. At the time of AA induction, each rat also received 100 μg of FP or control peptide, or PBS dissolved in 50 μl of IFA and mixed with Mt/IFA used to induce AA. The day of AA induction was designated as day 0. Disease severity was assessed by direct observation of all 4 limbs in each animal. A relative score between 0 and 4 was assigned to each limb, based on the degree of joint inflammation, redness and deformity; thus the maximum possible score for an individual animal was 16 (Quintana et al., 2002). The mean AA score (±SEM) is shown for each experimental group. Arthritis was also quantified by measuring hind limb diameter with a caliper. Measurements were taken on the day of the induction of AA and 26 days later (at the peak of AA); the results are presented as the mean±SEM of the difference between the two values for all the animals in each group. The person who scored the disease was blinded to the identity of the groups.
AA was induced in rats as indicated above; at the time of AA induction, each rat also received 100 μg of IFFA or PBS dissolved in 50 μl of IFA and mixed with Mt/IFA used to induce AA. Disease severity was assessed as described above.

lymph node cells (LNC) [3] = test: T-cell proliferation of LNC from Mt immunized rats ([methyl-3H]-thymidine incorporation); format: cell-based; settings: rat LNC, PPD 25 μg/ml
Method: T-cell proliferation. T-cell proliferation assays were performed using either lymph node cells (LNC) or the A2b T cell line, which reacts with the Mt176-90 peptide. Popliteal and inguinal LNC were removed 26 days after the injection of Mt in incomplete Freund's adjuvant (IFA), when strong T cell responses to PPD and Mt176-90 are detectable (Quintana et al., 2002). LNC were cultured at a concentration of 2×10^5 cells per well; 5×10^4 A2b T cells were stimulated in the presence of irradiated 5×10^5 thymic antigen presenting cells (APC) per well, prepared as previously described (van Eden et al., 1985). The cells were plated in quadruplicates in 200 μl round bottom microtiter wells (Costar Corp., Cambridge, USA), with or without antigen, in the presence of various concentrations of the peptides under study. For some experiments, the cells were activated with immobilized anti-CD3 antibodies or PMA/ionomycin as described (Wang et al., 2002). Cultures were incubated for 72 hr at 37° C. in a humidified atmosphere of 7.5% CO2. T-cell responses were detected by the incorporation of [methyl-3H]-thymidine (Amersham, Buckinghamshire, UK; 1 μCi/well), added during the last 18 hr of incubation. The results of T cell proliferation experiments are shown as the % of inhibition of the T cell proliferation triggered by the antigenin the absence of HIV or control peptides. […]

gp41 = gp41 (Human immunodeficiency virus type 1 group M subtype B, UniProt P04578); settings: effect of incorporation of D amino acids; cited from earlier work
LNC from injected rats = test: T cell immunity to the injected peptide: IFN-γ secretion of LNC incubated ex vivo with the same peptide; format: in vivo, rat
Description: Cytokine assays. Supernatants were collected after 72 hr of stimulation, and rat IL-10 and IFNγ were quantified by enzyme-linked immunosorbent assay (ELISA) using Pharmingen's OPTEIA kit (Pharmingen, San Diego, USA) as described (Quintana et al., 2002). When needed, cytokine levels are expressed as percentage of cytokine inhibition relative to cytokine levels when no peptide is present. Otherwise, the cytokines are shown as pg/ml. The lower limits of detection for the experiments described in this paper were 15 pg/ml for IL-10 and IFNγ. Cytokine amounts were calculated based on calibration curves constructed using recombinant cytokines as standards.
Rats were injected with FP, a control peptide (V2E or IFFA) or PBS in the presence of Mt and IFA. Twenty six days later, LNC were collected and incubated ex vivo with FP, V2E, IFFA, or PBS, respectively, and their IFN-γ secretion level was determined. […] LNC (incubated with PBS). […] Thus, the immunosuppressive effect of FP is sequence and structure specific.

Chain of gp41 (P04578 512-856): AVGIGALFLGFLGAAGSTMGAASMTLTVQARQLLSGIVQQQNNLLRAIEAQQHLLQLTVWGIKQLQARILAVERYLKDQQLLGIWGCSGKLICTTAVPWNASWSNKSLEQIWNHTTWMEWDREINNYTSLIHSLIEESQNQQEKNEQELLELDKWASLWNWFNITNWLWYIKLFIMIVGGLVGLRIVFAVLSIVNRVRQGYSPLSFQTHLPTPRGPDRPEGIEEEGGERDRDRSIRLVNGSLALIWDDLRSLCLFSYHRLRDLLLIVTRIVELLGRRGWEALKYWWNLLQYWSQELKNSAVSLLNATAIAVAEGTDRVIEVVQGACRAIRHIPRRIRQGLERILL

For `CC[C@H](C)[C@H](NC(=O)CNC(=O)[C@@H](NC(=O)[C@H](C)N)C(C)C)C(=O)NCC(=O)N[C@@H](C)C(=O)N[C@@H](CC(C)C)C(=O)N[C@@H](Cc1ccccc1)C(=O)N[C@@H](CC(C)C)C(=O)NCC(=O)N[C@@H](Cc1ccccc1)C(=O)N[C@@H](CC(C)C)C(=O)NCC(=O)N[C@@H](C)C(=O)N[C@@H](C)C(=O)NCC(=O)N[C@@H](CO)C(=O)N[C@H](C(=O)N[C@@H](CCSC)C(=O)NCC(=O)N[C@@H](C)C(=O)N[C@@H](CCCNC(=N)N)C(=O)N[C@@H](CO)C(=O)N[C@@H](CCSC)C(=O)N[C@H](C(=O)N[C@@H](CC(C)C)C(=O)N[C@H](C(=O)N[C@H](C(=O)N[C@@H](CCC(N)=O)C(=O)N[C@@H](C)C(=O)N[C@@H](CCCNC(=N)N)C(=O)N[C@@H](CCC(N)=O)C(=O)N[C@@H](CC(C)C)C(=O)O)C(C)C)[C@@H](C)O)[C@@H](C)O)[C@@H](C)O` [FP], the “survival of cells in culture” value (lymph node cells (LNC) [1]) was “the same survival in culture”.
In the case of `CC[C@H](C)[C@H](NC(=O)CNC(=O)[C@H](CCC(=O)O)NC(=O)[C@H](C)N)C(=O)NCC(=O)N[C@@H](C)C(=O)N[C@@H](CC(C)C)C(=O)N[C@@H](Cc1ccccc1)C(=O)N[C@@H](CC(C)C)C(=O)NCC(=O)N[C@@H](Cc1ccccc1)C(=O)N[C@@H](CC(C)C)C(=O)NCC(=O)N[C@@H](C)C(=O)N[C@@H](C)C(=O)NCC(=O)N[C@@H](CO)C(=O)N[C@H](C(=O)N[C@@H](CCSC)C(=O)NCC(=O)N[C@@H](C)C(=O)N[C@@H](CCCNC(=N)N)C(=O)N[C@@H](CO)C(=O)N[C@@H](CCSC)C(=O)N[C@H](C(=O)N[C@@H](CC(C)C)C(=O)N[C@H](C(=O)N[C@H](C(=O)N[C@@H](CCC(N)=O)C(=O)N[C@@H](C)C(=O)N[C@@H](CCCNC(=N)N)C(=O)N[C@@H](CCC(N)=O)C(=O)N[C@@H](CC(C)C)C(=O)O)C(C)C)[C@@H](C)O)[C@@H](C)O)[C@@H](C)O` [V2E], the “survival of cells in culture” value (lymph node cells (LNC) [1]) is reported as “the same survival in culture”.
In the case of `CC[C@H](C)[C@H](NC(=O)[C@H](CS)NC(=O)[C@H](CCCNC(=N)N)NC(=O)[C@H](CC(C)C)NC(=O)[C@H](CC(C)C)NC(=O)[C@H](C)NC(=O)[C@H](CS)NC(=O)CNC(=O)CNC(=O)CNC(=O)[C@H](CC(C)C)NC(=O)[C@@H](N)C(C)C)C(=O)N1CCC[C@H]1C(=O)N[C@@H](C)C(=O)N[C@@H](CC(C)C)C(=O)N[C@@H](CC(=O)O)C(=O)N[C@@H](CO)C(=O)N[C@@H](CC(C)C)C(=O)N[C@H](C(=O)N1CCC[C@H]1C(=O)N[C@@H](C)C(=O)N[C@@H](CC(N)=O)C(=O)N[C@@H](CCC(=O)O)C(=O)N[C@@H](CC(=O)O)C(=O)O)[C@@H](C)O` [p277, reference compound] (H-VLGGGCALLRCIPALDSLTPANED-OH), the “survival of cells in culture” value (lymph node cells (LNC) [1]) is reported as “the same survival in culture”.
For “AVGIGALF (Peptides derived of HIV-1 gp41) [FP1-8]”, the “inhibition of antigen-specific T cell proliferation” value (“inhibition” below) (lymph node cells (LNC) [2]) was “inhibit antigen-specific T cell proliferation”.
For “AVGIGALFLGFLGAAGSTMGARSMTLTVQARQL [IFFA]”, the “DTH reaction to oxazolone” value (Balb/c mice) was “inhibited the DTH reaction”, the “arthritis, clinical score” value (Lewis rats) was “milder arthritis” and the “inhibition” value (lymph node cells (LNC) [3]) was “inhibit antigen-specific T cell proliferation”. For the same compound, the “ability to inhibit gp41-mediated membrane fusion” value (gp41) was “does not affect its ability to inhibit gp41-mediated membrane fusion”, the “ex vivo activation relative to FP” value (LNC from injected rats; LNC collected 26 days after injection) was “about ten fold more than FP” and the “ex vivo activation (IFN-γ secretion) of LNC by the injected peptide” value (LNC from injected rats; LNC collected 26 days after injection with Mt and IFA) was “highly reactive to IFFA ex vivo”.
For “GALFLGFLG (Peptides derived of HIV-1 gp41) [FP5-13]”, the “inhibition” value (lymph node cells (LNC) [2]) was “inhibit antigen-specific T cell proliferation”.
